How the values were obtained:
[1] = target: T1, Recombinant human IDO enzyme (IDO1 enzyme) (Homo sapiens, UniProt P14902); experiment: In vitro IDO enzymatic activity assay (kynurenine colour reaction, 492 nm); type: biochemical; conditions: for inhibition at 0.2 µM: tested compound concentration 200 nM, recombinant human IDO1, read-out: IDO Enzymatic Inhibition Rate (%) (200 nM)
T1 construct: purchased BPS Bioscience, USA
Procedure: The basic principle of the in vitro IDO enzymatic activity detection is to use the IDO enzyme to metabolize the substrate L-tryptophan to produce the product kynurenine in an in vitro enzyme-catalyzed reaction system. The kynurenine is yellow in color reaction with p-dimethylaminobenzaldehyde in glacial acetic acid, and the absorbance value was measured at 492 nm on a microplate reader. The concentration of the product kynurenine in the sample is calculated by comparison to a standard curve of kynurenine with a known concentration.
Recombinant human IDO enzyme (IDO1 enzyme) was purchased from BPS Bioscience, USA.
(3) Control reactions were set up at the same time the detection reaction was carried out. including 0 inhibition positive control with no tested compound added and 0 enzyme negative control with no enzyme added. All tests were run in duplicate.
(4) After the enzymatic reaction was completed, 40 μl of a pre-formulated 30% (w/v) trichloroacetic acid solution was added, and reacted at 65° C. for 20 minutes, followed by centrifugation at 12,000 rpm for 15 minutes.
(5) 100 μl of the supernatant after centrifugation was pipetted and added to a 96-well plate. An equal volume of 2% p-dimethylaminobenzaldehyde in glacial acetic acid was added, well mixed, and allowed to stand at room temperature for 10 minutes.
(6) A microplate reader (ELX800NB) was used to detect the color signal of each well with a detection wavelength of 492 nm.
In addition, the enzymatic inhibition rates were calculated for the tested compounds of different concentration gradients, and then the enzymatic half maximal inhibitory concentration (IC50) was calculated using the IC50 calculator.
According to the above-mentioned method of experiment, the compound of the present disclosure was subjected to an in vitro IDO enzymatic IC50 assay using NLG919 as a positive control compound.

[2] = target: T2, IFN-γ-induced IDO enzyme in HeLa cells (Homo sapiens, UniProt P14902); experiment: Detection of IDO inhibitory activity at the cellular level (IFN-γ-induced HeLa cells); type: cell-based; conditions: 48 hours; for inhibition at 1 µM: tested compound 1 μM, human IFN-γ 50 ng/ml, read-out: IDO Inhibitory Rate (%) (1 μM)
T2 construct: HeLa cells are human cervical cancer cell lines and can up-regulate the expression of endogenous IDO enzymes; endogenous in cells; host or cells: HeLa cells stimulated with human IFN-γ
T2 sequence (P14902 whole entry): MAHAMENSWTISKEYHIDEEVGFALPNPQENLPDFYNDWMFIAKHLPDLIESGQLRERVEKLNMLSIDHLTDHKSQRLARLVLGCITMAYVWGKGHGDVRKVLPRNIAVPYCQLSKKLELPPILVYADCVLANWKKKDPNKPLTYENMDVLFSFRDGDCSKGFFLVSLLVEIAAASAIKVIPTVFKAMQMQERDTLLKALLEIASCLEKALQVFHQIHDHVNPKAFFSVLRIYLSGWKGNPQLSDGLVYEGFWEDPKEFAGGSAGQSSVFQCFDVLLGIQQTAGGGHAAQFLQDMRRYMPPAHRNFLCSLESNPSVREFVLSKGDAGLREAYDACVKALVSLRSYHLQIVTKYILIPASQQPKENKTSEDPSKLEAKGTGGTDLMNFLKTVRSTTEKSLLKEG
Excerpt: In the present disclosure, IFN-γ-induced IDO enzyme expression in HeLa cells were used as a model to detect the IDO enzymatic inhibitory activity of the compound at the cellular level. HeLa cells are human cervical cancer cell lines and can up-regulate the expression of endogenous IDO enzymes under the induction of human IFN-γ. The cell supernatant can be subjected to detection of the enzyme-catalyzed product kynurenine by adding the substrate L-tryptophan to the cell culture solution. […] Recombinant human IFN-γ cytokine purchased from Sangon Biotech, Phenol red-free DMEM for cell culture purchased from Gibco. […] The cells were further cultured for 48 hours and detected. (2) 200 μl of the supernatant from the culture well was pipetted, 40 μl of a pre-formulated 30% (w/v) trichloroacetic acid solution was added, allowed to react at 65° C. for 20 minutes, and then centrifuged at 12,000 rpm for 15 minutes. (3) 100 μl of the supernatant after centrifugation was pipetted and added into a 96-well plate, an equal volume of 2% p-dimethylaminobenzaldehyde in glacial acetic acid was added, and they were mixed well and allowed to stand at room temperature for 10 minutes. (4) A microplate reader (ELX800NB) was used to detect the color signal of each well, and the detection wavelength was 492 nm.

T1 sequence (P14902 whole entry): as above

In the case of `O=C(COc1ccc2ncccc2c1)N1CCC(C(O)CC2c3ccccc3-c3cncn32)CC1` (stereo not shown) [Example 23, 1-(4-(1-hydroxy-2-(5H-imidazo[5,1-a]isoindol-5-yl)ethyl)piperidin-1-yl)-2-(quinolin-6-yloxy)ethyl-1-one], the inhibition at 0.2 µM [1] is reported as 80% and the inhibition at 1 µM [2] is reported as 77%.

Work on `CCN(CC(=O)N1CCC(C(O)CC2c3ccccc3-c3cncn32)CC1)c1ccccc1` (stereo not shown) [Example 81, 2-(ethyl(phenyl)amino)-1-(4-(1-hydroxy-2-(5H-imidazo[5,1-a]isoindol-5-yl)ethyl)piperidin-1-yl)ethyl-1-one] yielded an inhibition at 0.2 µM [1] of 85% and an inhibition at 1 µM [2] of 94%.

In the case of `CN(CC(=O)N1CCC(C(O)CC2c3ccccc3-c3cncn32)CC1)c1ccc(F)cc1` (stereo not shown) [Example 72, 2-((4-fluorophenyl)(methyl)amino)-1-(4-(1-hydroxy-2-(5H-imidazo[5,1-a]isoindol-5-yl)ethyl)piperidin-1-yl)ethyl-1-one], the inhibition at 0.2 µM [1] is reported as 73% and the inhibition at 1 µM [2] is reported as 91%.

With `O=C(COc1ccccc1)N1CCC(C(O)CC2c3ccccc3-c3cncn32)CC1` (stereo not shown) [Example 7, 1-(4-(1-hydroxy-2-(5H-imidazo[5,1-a]isoindol-5-yl)ethyl)piperidin-1-yl)-2-phenoxyethyl-1-one] the IC50 ([1]; recombinant human IDO enzyme) was 55 nM, the inhibition at 0.2 µM [1] was 85% and the EC50 ([2]; human IFN-γ induced, read-out: IDO EC50 (nM) at the Cellular Level (column head: IC50 (nM))) was 154 nM. The inhibition at 1 µM [2] was 93%.
